Entries after “also recorded” stand apart in the source; their conditions may differ.
Columns and labels:
P. aeruginosa growth = assay: bacterial growth over time (OD600); assay type: cell-based, Pseudomonas aeruginosa; details: prior to 12 h; at concentrations as low as 10 μM; diminish by 12 h
Protocol: The effects of compounds 7 and 21 on P. aeruginosa growth were evaluated by monitoring the OD600 as a function of time. Microtiter plates were prepared similar to biofilm dose-response analyses such that final well concentrations upon inoculum addition ranged from 10^x μM where x=3.5, 3, 2.5, 2, 1.5, 1, 0, −1, or −2. Compounds 7 and 21 were tested in replicates of 3 wells, and the OD600 was measured every 1-2 h for 24 h.

COS-7 cells = assay: fluorescence-based live/dead cytotoxicity assay; assay type: cell-based; details: 24 hrs, live/dead staining
Protocol: Experiments to characterize the toxicity of exemplary compound 21 in a model mammalian cell line were conducted by incubating COS-7 African Green Monkey kidney cells (American Type Culture Collection, Manassas, Va.), a fibroblast-like mammalian cell line, in the presence of varying amounts of compound 21 and characterizing resulting levels of cell death using a standard fluorescence-based live/dead assay. Cells were seeded in 96-well plates by adding 200 μL of a suspension containing 50,000 cells/mL in cell culture media (Gibco® DMEM supplemented with 10% (v/v) fetal bovine serum, 100 units/mL penicillin, and 100 μg/mL streptomycin) in individual wells of a black-walled, clear-bottomed 96-well cell culture plate (Costar 3603). […] Fluorescence microscopy images of the wells were acquired using an Olympus IX70 microscope and Metavue version 7.1.2.0 software package (Molecular Devices, Toronto, Canada). Images were analyzed using Image J 1.43u (National Institutes of Health; Washington, D.C.). Live and dead cell results were also analyzed by averaging the mean fluorescence from a minimum of six images taken from three replicate samples and normalized to untreated (live control) and methanol-treated (dead control) wells (see FIG. 20).

P. aeruginosa biofilm = assay: effects of metals on biofilm inhibition; assay type: cell-based, Pseudomonas aeruginosa; details: compound at 250 μM; Cu(II)SO4, Fe(II)SO4, Fe(III)Cl3, Zn(II)SO4 up to 1000 μM; 24 h
Protocol: Microtiter plates were first prepared by adding 50 μL aliquots of a 1 mM EtOH stock solution of 7 to each well in order to effect a final well concentration upon inoculum addition of 250 μM; this concentration was chosen as it is approximately the minimum concentration of 7 showing maximal biofilm inhibition. The EtOH was then removed by drying at 37° C., and the plates were sterilized. Directly prior to inoculation, 100 mM stock solutions of metals were freshly prepared in 18 MΩ H2O and diluted in series in a polypropylene 96-well microtiter plate (Costar 3879) to achieve stocks with the following concentrations: 100, 75, 50, 25, 12.5, 6.25, 1.25, 0.25, 0.05, and 0 mM. The choice of metals for evaluation was based on the results of the UV-Vis studies and included Cu(II)SO4, Fe(II)SO4.7H2O, Fe(III)Cl3.6H2O, and Zn(II)SO4.7H2O. Using a 10 μL multi-channel pipette, 2 μL aliquots of the metal stock solutions were added to the side of wells, avoiding contact with dried 7 on the bottom of the well. […] The highest metal:7 ratio obtained was 4:1 (1000 μM metal to 250 μM 7), which was assumed to be sufficient to see any mitigating effect based on our UV-Vis studies. […] All samples were tested in replicates of 3 wells and were assessed for biofilm production after 24 h incubation by CV staining and quantification.

[1] = UV-Vis metal binding studies; assay type: physicochemical; details: compound:metal ratios of approximately 1:1; preliminary

Cc1cc2nc(N)[nH]c2cc1C [Compound 21, 5,6-Dimethyl-2-aminobenzimidazole]
growth inhibition versus positive control (P. aeruginosa growth): greater than 20% | concentrations at which not substantially cytotoxic (COS-7 cells): below 0.25 mM

Nc1nc2ccccc2[nH]1 [Compound 7, 2-aminobenzimidazole]
mitigating effect of metals on biofilm inhibitory activity (P. aeruginosa biofilm): none of the tested metals were able to mitigate the biofilm inhibitory activity; also recorded: observed no change in activity | interaction with metals [1]: able to interact with certain metals

From US10292390B2, “Inhibition and dispersion of bacterial biofilms with 2-aminobenzimidazole derivatives” (WISCONSIN ALUMNI RESEARCH FOUNDATION, priority 2011, dated 2019)
